Calls of active or inactive are those of the source. The rule behind the calls is not given here.
What was measured:
[1] = tested on: NCI-H1975; test: Growth inhibition of human tarceva and iressa-resistant NCI-H1975 cells assessed as ATP level after 4 days; format: functional; conditions: NCI-H1975, 96 h
[2] = Oral bioavailability in mouse; format: ADME, organism-based; conditions: in vivo
[3] = tested on: Mus musculus; test: Hepatotoxicity in ICR-SCID mouse liver assessed as alanine aminotransferase level at 100 mg/kg administered 3 times per week for 4 weeks measured after 24 hrs of last dose relative to untreated control; format: toxicity, organism-based; set-up: dose 100 mg/kg; conditions: in vivo
[4] = tested on: MDA-MB-468; test: Growth inhibition of human MDA-MB-468 cells assessed as ATP level after 4 days; format: functional; conditions: MDA-MB-468, 96 h
[5] = tested on: NCI-N87; test: Growth inhibition of human NCI-N87 cells assessed as ATP level after 4 days; format: functional; conditions: NCI-N87, 96 h
[6] = tested on: NSCLC; test: Growth inhibition of human NSCLC cells assessed as ATP level after 4 days; format: functional, cell-based
[7] = tested on: HCC827; test: Induction of mutant Met degradation in human tarceva and iressa-resistant HCC827 cells at 20 to 500 nM by Western blotting; format: functional, cell-based
[8] = tested on: NCI-H1975; test: Induction of mutant p-Akt degradation in human tarceva and iressa-resistant NCI-H1975 cells at 20 to 500 nM by Western blotting; format: functional, cell-based
[9] = tested on: BT-474; test: Induction of HSP70 degradation in human BT474 cells xenografted in ICR-SCID mouse at 100 mg/kg, ip administered after 3 weeks tumor implantation after 6 to 48 hrs by Western blotting; format: functional, organism-based; set-up: dose 100 mg/kg
[10] = Drug level in tumor of human BT474 cells xenografted in ICR-SCID mouse at 100 mg/kg, ip administered after 3 weeks tumor implantation measured after 24 hrs; format: ADME, organism-based, Neoplasm, BT-474; set-up: dose 100 mg/kg, route intraperitoneal; conditions: tumor (human BT474 xenograft), read-out: Drug uptake
[11] = tested on: Mus musculus; test: Hepatotoxicity in ICR-SCID mouse liver assessed as aspartate aminotransferase level at 150 mg/kg administered 3 times per week for 4 weeks measured after 24 hrs of last dose relative to untreated control; format: toxicity, organism-based; set-up: dose 150 mg/kg; conditions: in vivo
[12] = tested on: Mus musculus; test: Hepatotoxicity in ICR-SCID mouse liver assessed as alanine aminotransferase level at 150 mg/kg administered 3 times per week for 4 weeks measured after 24 hrs of last dose relative to untreated control; format: toxicity, organism-based; set-up: dose 150 mg/kg; conditions: in vivo
[13] = tested on: K562; test: Growth inhibition of human K562 cells assessed as ATP level after 4 days; format: functional; conditions: K562, 96 h
[14] = Drug level in tumor of human BT474 cells xenografted in ICR-SCID mouse at 200 mg/kg, ip administered after 3 weeks tumor implantation measured after 48 hrs; format: ADME, organism-based, Neoplasm, BT-474; set-up: dose 200 mg/kg, route intraperitoneal; conditions: tumor (human BT474 xenograft), read-out: Drug uptake
[15] = Drug level in tumor of human BT474 cells xenografted in ICR-SCID mouse at 150 mg/kg, ip administered after 3 weeks tumor implantation measured after 12 hrs; format: ADME, organism-based, Neoplasm, BT-474; set-up: dose 150 mg/kg, route intraperitoneal; conditions: tumor (human BT474 xenograft), read-out: Drug uptake
[16] = tested on: BT-474; test: Induction of AKT degradation in human BT474 cells xenografted in ICR-SCID mouse at 100 mg/kg, ip administered after 3 weeks tumor implantation after 6 to 48 hrs by Western blotting; format: functional, organism-based; set-up: dose 100 mg/kg
[17] = tested on: HCT-116; test: Growth inhibition of human HCT116 cells assessed as ATP level after 4 days; format: functional; conditions: HCT-116, 96 h
[18] = tested on: HCC827; test: Induction of mutant p-Akt degradation in human tarceva and iressa-resistant HCC827 cells at 20 to 500 nM by Western blotting; format: functional, cell-based
[19] = tested on: Mus musculus; test: Hepatotoxicity in ICR-SCID mouse liver assessed as alkaline phosphatase level at 150 mg/kg administered 3 times per week for 4 weeks measured after 24 hrs of last dose relative to untreated control; format: toxicity, organism-based; set-up: dose 150 mg/kg; conditions: in vivo
[20] = tested on: Mus musculus; test: Toxicity in ICR-SCID mouse kidney assessed as BUN level at 150 mg/kg administered 3 times per week for 4 weeks measured after 24 hrs of last dose relative to untreated control; format: organism-based; set-up: dose 150 mg/kg; conditions: in vivo
[21] = tested on: NCI-H1975; test: Induction of mutant EGFR degradation in human tarceva and iressa-resistant NCI-H1975 cells at 20 to 500 nM by Western blotting; format: functional, cell-based
[22] = biological target: Heat shock protein HSP 90-alpha (Homo sapiens) (UniProt P07900)
Description: Binding affinity to human HSP90alpha

[23] = tested on: HCC827; test: Induction of mutant Cdk4 degradation in human tarceva and iressa-resistant HCC827 cells at 20 to 500 nM by Western blotting; format: functional, cell-based
[24] = Bioavailability in […] dosed mouse; format: ADME, organism-based; conditions: in vivo
[25] = tested on: Mus musculus; test: Hepatotoxicity in ICR-SCID mouse liver assessed as alkaline phosphatase level at 100 mg/kg administered 3 times per week for 4 weeks measured after 24 hrs of last dose relative to untreated control; format: toxicity, organism-based; set-up: dose 100 mg/kg; conditions: in vivo
[26] = tested on: BT-474; test: Induction of HER2 degradation in human BT474 cells xenografted in ICR-SCID mouse at 100 mg/kg, ip administered after 3 weeks tumor implantation after 6 to 48 hrs by Western blotting; format: functional, organism-based; set-up: dose 100 mg/kg
[27] = Drug level in tumor of human BT474 cells xenografted in ICR-SCID mouse at 100 mg/kg, ip administered after 3 weeks tumor implantation measured after 48 hrs; format: ADME, organism-based, Neoplasm, BT-474; set-up: dose 100 mg/kg, route intraperitoneal; conditions: tumor (human BT474 xenograft), read-out: Drug uptake
[28] = tested on: Mus musculus; test: Toxicity in ICR-SCID mouse kidney assessed as creatinine level at 100 mg/kg administered 3 times per week for 4 weeks measured after 24 hrs of last dose relative to untreated control; format: organism-based; set-up: dose 100 mg/kg; conditions: in vivo
[29] = tested on: BT-474; test: Induction of p-AKT degradation in human BT474 cells xenografted in ICR-SCID mouse at 100 mg/kg, ip administered after 3 weeks tumor implantation after 6 to 48 hrs by Western blotting; format: functional, organism-based; set-up: dose 100 mg/kg
[30] = Drug level in tumor of human BT474 cells xenografted in ICR-SCID mouse at 150 mg/kg, ip administered after 3 weeks tumor implantation measured after 24 hrs; format: ADME, organism-based, Neoplasm, BT-474; set-up: dose 150 mg/kg, route intraperitoneal; conditions: tumor (human BT474 xenograft), read-out: Drug uptake
[31] = tested on: BT-474; test: Induction of c-Raf degradation in human BT474 cells xenografted in ICR-SCID mouse at 100 mg/kg, ip administered after 3 weeks tumor implantation after 6 to 48 hrs by Western blotting; format: functional, organism-based; set-up: dose 100 mg/kg
[32] = Growth inhibition of human tarceva and iressa-resistant HCC827 cells assessed as ATP level after 4 days; format: functional; conditions: HCC827, 96 h
[33] = organism: Homo sapiens; test: Growth inhibition of human tarceva and iressa-resistant […] cells assessed as ATP level after 4 days; format: functional
[34] = tested on: HCC827; test: Induction of mutant Cyclin D degradation in human tarceva and iressa-resistant HCC827 cells at 20 to 500 nM by Western blotting; format: functional, cell-based
[35] = tested on: NCI-H1975; test: Induction of mutant Met degradation in human tarceva and iressa-resistant NCI-H1975 cells at 20 to 500 nM by Western blotting; format: functional, cell-based
[36] = tested on: PC-3; test: Growth inhibition of human PC3 cells assessed as ATP level after 4 days; format: functional, cell-based
[37] = tested on: HCC827; test: Induction of mutant c-Raf degradation in human tarceva and iressa-resistant HCC827 cells at 20 to 500 nM by Western blotting; format: functional, cell-based
[38] = Growth inhibition of human MDA231 cells assessed as ATP level after 4 days; format: functional; conditions: MDA-MB-231, 96 h
[39] = Solubility in water; format: physicochemical; conditions: buffer
[40] = tested on: Mus musculus; test: Toxicity in ICR-SCID mouse heart assessed as cholesterol level at 100 mg/kg administered 3 times per week for 4 weeks measured after 24 hrs of last dose relative to untreated control; format: organism-based; set-up: dose 100 mg/kg; conditions: in vivo
[41] = tested on: Mus musculus; test: Hepatotoxicity in ICR-SCID mouse liver assessed as aspartate aminotransferase level at 100 mg/kg administered 3 times per week for 4 weeks measured after 24 hrs of last dose relative to untreated control; format: toxicity, organism-based; set-up: dose 100 mg/kg; conditions: in vivo

O=C1OCC/C=C/CC/C=C/C(=N/OCC(=O)N2CCCCC2)Cc2c(Cl)c(O)cc(O)c21 [POCHOXIME A]
GI50 [1]: 25 nM | bioavailability [2]: 3.4% | Activity [3]: 19.3 U/L | GI50 [4]: 9 nM | GI50 [5]: 4 nM | Activity [6]: Active | Activity [7]: Active | Activity [8]: Active | Activity [9]: Active | concentration at 24 h [10]: 4020 ng/g | Activity [11]: 191 U/L | Activity [12]: 12 U/L | GI50 [13]: 6 nM | concentration at 48 h [14]: 4020 ng/g | concentration at 12 h [15]: 6500 ng/g | Activity [16]: Active | GI50 [17]: 9 nM | Activity [18]: Active | Activity [19]: 67.5 U/L | Activity [20]: 19 mg/dL | Activity [21]: Active | GI50 [22]: 21 nM | Activity [23]: Active | bioavailability [24]: 60.5% | Activity [25]: 51.3 U/L | Activity [26]: Active | concentration at 48 h [27]: 1500 ng/g | Activity [28]: 0.2 mg/dL | Activity [29]: Active | concentration at 24 h [30]: 7930 ng/g | Activity [31]: Active | GI50 [32]: 31 nM | Activity [33]: Active | Activity [34]: Active | Activity [35]: Active | Activity [36]: Active | Activity [37]: Active | GI50 [38]: 7 nM | solubility [39]: Insoluble | Activity [40]: 168 mg/dL | Activity [41]: 88.7 U/L
